Assay results from patent US20090203738A1, “Pharmaceutical Composition for Treating Bulimia and Depression Arising from Bulimia” (priority 2005, published 2009).
Where a name gives a salt, the structure may show the parent alone. Read-outs that look alike come from different tables or passages of the source.

Legend:
[1] = test system: patient with excessive eating and vomiting (bulimia) and depressive state; conditions: patient history: drug therapy and spiritual therapy at three neurological hospitals before the first examination; cited from earlier work
[2] = test system: patients suffering from light to medium Alzheimer's disease; conditions: 24-week, double-blind, placebo-controlled trial; cited from earlier work
bulimia = conditions: cited from earlier work
[3] = test system: patient with excessive eating and vomiting (bulimia), insensitive to 60 mg of fluoxetine
Description: An excessive eating started when they were the third year class ([…]) of high school and it is still continuing. At the first medical examination, they were unable to go to university.

In the case of Fc1ccc([C@@H]2CCNC[C@H]2COc2ccc3c(c2)OCO3)cc1 [Paxil], the “improvement under earlier drug therapy” value [1] is listed as “no improvement was noted”.
In the case of COc1cc2c(cc1OC)C(=O)C(CC1CCN(Cc3ccccc3)CC1)C2 (stereo not shown) [donepezil hydrochloride, 1-benzyl-4-[(5,6-dimethoxy-1-indanon)-2-yl]methylpiperidine], the “cognitive ability and general function” value [2] is listed as “improves the cognitive ability and general function”.
For COCCCC/C(=N\OCCN)c1ccc(C(F)(F)F)cc1 [fluvoxamine], the “improvement under earlier drug therapy” value [1] is given as “no improvement was noted”.
For CNCCC(Oc1ccc(C(F)(F)F)cc1)c1ccccc1 (stereo not shown) [fluoxetine], the rate of improvement (bulimia; bulimia, 60 mg per day) is listed as “about 60%”, the “improvement in excessive eating” value ([3]; 20 mg of fluoxetine for two weeks) is listed as “no improvement in excessive eating was noted” and the “improvement in excessive eating” value ([3]; fluoxetine increased to 40 mg) is listed as “no improvement was noted yet”. For the same compound, the “amount and frequency of excessive eating” value ([3]; fluoxetine increased up to 60 mg, for two weeks) was “no decrease in amount and frequency of excessive eating were noted” and the depression ([3]; fluoxetine up to 60 mg, six weeks from the initiation of the therapy) was “No change in depression was noted”.
In the case of CCCC(CCC)C(=O)[O-].[Na+] [sodium valproate], the “improvement under earlier drug therapy” value [1] is given as “no improvement was noted”.
For Cc1nc2n(c(=O)c1CCN1CCC(c3noc4cc(F)ccc34)CC1)CCCC2 [Risperdal], the “improvement under earlier drug therapy” value [1] is given as “no improvement was noted”.
In the case of OC1(c2ccc(Cl)cc2)c2ccccc2C2=NCCN21 (stereo not shown) [mazindol], the side effects (bulimia; applied for bulimia) is listed as “excitation, frustration, load on cardiovascular system, dysuria and others”.
For O=C1CN=C(c2ccccc2Cl)c2cc([N+](=O)[O-])ccc2N1 [Rivotril], the “improvement under earlier drug therapy” value [1] is listed as “no improvement was noted”.
For CN1C(=O)CN=C(c2ccccc2)c2cc(Cl)ccc21 [diazepam], the “improvement under earlier drug therapy” value [1] is listed as “no improvement was noted”.
